According to patent US20080081053A1, “Treatment Method” (priority 2004, published 2008):

Tested on: advanced AML
Experiment: Phase 2 clinical study in patients with advanced AML
Format: in vivo, human
Conditions: for %myeloblasts in bone marrow: patient with HI for neutrophils, 36% at baseline
Description: In a Phase 2 clinical study, 24 patients, 18 years or older, with advanced AML were treated with 12.5 mg AP23573 as a 30-minute intravenous infusion daily for 5 days every-2-weeks (QDX5, daily). The majority of patients enrolled in this trial had aggressive disease and received AP23573 study treatment as at least a 3rd line treatment regimen. Responses were assessed at the end of each cycle (4 weeks of study treatment). At the end of one cycle, two patients had Hematologic Improvement (HI), including erythroid and neutrophil minor responses. […] Six patients were stable at the end of Cycle 1 (neither response nor disease progression).
The criteria for observed responses were as follows: • a Minor Response for erythroid HI: for patients with pre-dosing hemoglobin less than 11 g/dL, […] increase in hemoglobin; for RBC transfusion-dependnt patients, 50% decrease in transfusion requirements • a Minor Response for neutrophil HI: for ANC less than 1.5×10^9 before dosing, ANC increase of at least 100%, but absolute increase less than 1.5×10^9 • Stable Disease/no response: no significant change since baseline (neither response nor progression criteria were met) • Progressive Disease: One of the following: a 50% or greater decrement from maximum response levels in graunulocytes or platelets, a reduction in hemoglobin concentration by at least 2 g/dL, or transfusion dependence

CO[C@H]1C[C@@H]2CC[C@@H](C)[C@@](O)(O2)C(=O)C(=O)N2CCCC[C@H]2C(=O)O[C@H]([C@H](C)C[C@@H]2CC[C@@H](OP(C)(C)=O)[C@H](OC)C2)CC(=O)[C@H](C)/C=C(\C)[C@@H](O)[C@@H](OC)C(=O)[C@H](C)C[C@H](C)/C=C/C=C/C=C/1C [AP23573]
patients with Hematologic Improvement (HI), including erythroid and neutrophil minor responses (24 patients with advanced AML, 12.5 mg, 30-minute i.v. infusion daily for 5 days every 2 weeks (QDX5), at the end of one cycle (4 weeks)): two | patients stable (neither response nor disease progression) (24 patients with advanced AML, end of Cycle 1, 12.5 mg i.v. QDX5): Six | %myeloblasts in bone marrow (at Cycle 2, 12.5 mg i.v. QDX5): 15% | %myeloblasts in bone marrow (end of Cycle 1, 12.5 mg i.v. QDX5): 9%
